Laboratory results taken from ChEMBL document CHEMBL1201862, “PubChem BioAssay data set” (2004).
Active and inactive are the calls of the source.

Key:
[1] = inhibitors of intracellular T. cruzi replication, confirmation, NIH3T3 host cells, beta-gal luminescence (AID 2044); format: functional, cell-based;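 note: intracellular parasites grown in NIH/3T3 mouse fibroblasts as host cells; luminescent beta-galactosidase reporter signal from transgenic T. cruzi replicating inside host cells; inhibitors lower the luminescence signal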
[2] = HeLa cell cytotoxicity, dose response, cytotoxicity control for MgcRacGAP inhibitor project (AID 624300); format: functional
Genome polyprotein = Genome polyprotein (dengue virus type 2, UniProt P29990); assay: Dengue-2 NS5 methyltransferase inhibitors, primary screen, biochemical, confirmation dose response (AID 588689); format: functional
Chain of Genome polyprotein (P29990 2492-3391 limits assumed): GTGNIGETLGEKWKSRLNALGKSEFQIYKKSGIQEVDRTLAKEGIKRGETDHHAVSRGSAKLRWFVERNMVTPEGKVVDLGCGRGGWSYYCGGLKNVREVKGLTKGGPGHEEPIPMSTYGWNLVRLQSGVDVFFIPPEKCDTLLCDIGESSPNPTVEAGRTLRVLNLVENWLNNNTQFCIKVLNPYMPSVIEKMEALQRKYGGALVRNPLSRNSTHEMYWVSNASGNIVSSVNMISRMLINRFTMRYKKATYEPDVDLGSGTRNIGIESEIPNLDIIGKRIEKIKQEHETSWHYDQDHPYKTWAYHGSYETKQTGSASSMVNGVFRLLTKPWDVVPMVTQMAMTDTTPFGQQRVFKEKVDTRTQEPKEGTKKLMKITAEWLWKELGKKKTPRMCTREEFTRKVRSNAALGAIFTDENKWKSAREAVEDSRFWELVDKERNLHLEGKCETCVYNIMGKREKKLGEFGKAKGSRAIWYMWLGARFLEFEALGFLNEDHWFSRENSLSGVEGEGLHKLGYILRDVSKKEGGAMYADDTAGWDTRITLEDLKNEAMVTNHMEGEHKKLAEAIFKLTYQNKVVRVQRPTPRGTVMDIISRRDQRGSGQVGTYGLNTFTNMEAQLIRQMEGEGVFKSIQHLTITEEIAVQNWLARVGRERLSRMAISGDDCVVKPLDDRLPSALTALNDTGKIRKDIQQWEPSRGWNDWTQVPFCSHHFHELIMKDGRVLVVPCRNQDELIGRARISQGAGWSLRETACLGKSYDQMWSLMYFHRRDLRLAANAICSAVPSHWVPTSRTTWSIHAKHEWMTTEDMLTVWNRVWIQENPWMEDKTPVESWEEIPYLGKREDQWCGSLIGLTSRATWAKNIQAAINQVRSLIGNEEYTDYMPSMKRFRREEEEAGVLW

[3] = control 3'UTR Renilla luciferase suppression, dose response, counter-screen for Shn3 inhibitor project, cell-based, Clone20-Shn3RL, cherry-picked (AID 624133); format: functional
[4] = cytotoxicity toward NIH3T3 fibroblasts, dose response, counter-screen, cell-based, ATP luminescence, mouse fibroblasts (AID 2010); format: functional;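 note: cells exposed to compound for about 90 hours before reading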
Protein RecA = biological target: T1, Protein RecA (Mycobacterium tuberculosis, UniProt P9WHJ3); assay: Fluorescence Cell-Free Homogeneous Dose Retest to Identify Inhibitors of RecA-Intein Splicing Activity. [Related pubchem assays (depositor defined):AID2097, AID2223, AID489010, AID492950]; format: functional
T1 sequence (P9WHJ3 whole entry): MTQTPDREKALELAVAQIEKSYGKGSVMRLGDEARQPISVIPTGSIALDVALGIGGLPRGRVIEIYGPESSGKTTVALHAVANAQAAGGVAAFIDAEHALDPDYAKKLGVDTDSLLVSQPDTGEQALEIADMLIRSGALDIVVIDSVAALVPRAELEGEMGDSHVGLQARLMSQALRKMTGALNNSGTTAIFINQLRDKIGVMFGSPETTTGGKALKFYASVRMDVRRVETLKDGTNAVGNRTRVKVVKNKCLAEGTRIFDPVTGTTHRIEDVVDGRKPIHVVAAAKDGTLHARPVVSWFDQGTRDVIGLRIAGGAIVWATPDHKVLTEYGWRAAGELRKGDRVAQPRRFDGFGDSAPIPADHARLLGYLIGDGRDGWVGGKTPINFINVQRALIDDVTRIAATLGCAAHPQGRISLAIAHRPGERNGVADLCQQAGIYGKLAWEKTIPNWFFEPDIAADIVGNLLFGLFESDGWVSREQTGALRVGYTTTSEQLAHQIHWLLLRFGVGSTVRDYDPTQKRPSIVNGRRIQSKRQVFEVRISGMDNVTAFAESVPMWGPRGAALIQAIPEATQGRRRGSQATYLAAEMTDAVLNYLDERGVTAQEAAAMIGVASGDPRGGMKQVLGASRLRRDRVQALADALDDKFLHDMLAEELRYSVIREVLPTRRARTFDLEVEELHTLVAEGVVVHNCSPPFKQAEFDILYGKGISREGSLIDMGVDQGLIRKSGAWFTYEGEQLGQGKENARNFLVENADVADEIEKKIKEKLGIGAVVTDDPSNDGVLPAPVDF

[5] = Fluorescence-based cell-based high throughput dose response assay for inhibitors of the interaction of nucleotide-binding oligomerization domain containing 2 (NOD2) and the receptor-interacting serine-threonine kinase 2 (RIPK2).; format: functional; settings: Homo sapiens
[6] = biological target: T2, Replicative DNA helicase DnaB (Mycobacterium tuberculosis, UniProt P9WMR3); assay: DnaB intein splicing inhibitors, dose response, biochemical, cell-free fluorescence (AID 449749); format: functional
T2 sequence (P9WMR3 whole entry): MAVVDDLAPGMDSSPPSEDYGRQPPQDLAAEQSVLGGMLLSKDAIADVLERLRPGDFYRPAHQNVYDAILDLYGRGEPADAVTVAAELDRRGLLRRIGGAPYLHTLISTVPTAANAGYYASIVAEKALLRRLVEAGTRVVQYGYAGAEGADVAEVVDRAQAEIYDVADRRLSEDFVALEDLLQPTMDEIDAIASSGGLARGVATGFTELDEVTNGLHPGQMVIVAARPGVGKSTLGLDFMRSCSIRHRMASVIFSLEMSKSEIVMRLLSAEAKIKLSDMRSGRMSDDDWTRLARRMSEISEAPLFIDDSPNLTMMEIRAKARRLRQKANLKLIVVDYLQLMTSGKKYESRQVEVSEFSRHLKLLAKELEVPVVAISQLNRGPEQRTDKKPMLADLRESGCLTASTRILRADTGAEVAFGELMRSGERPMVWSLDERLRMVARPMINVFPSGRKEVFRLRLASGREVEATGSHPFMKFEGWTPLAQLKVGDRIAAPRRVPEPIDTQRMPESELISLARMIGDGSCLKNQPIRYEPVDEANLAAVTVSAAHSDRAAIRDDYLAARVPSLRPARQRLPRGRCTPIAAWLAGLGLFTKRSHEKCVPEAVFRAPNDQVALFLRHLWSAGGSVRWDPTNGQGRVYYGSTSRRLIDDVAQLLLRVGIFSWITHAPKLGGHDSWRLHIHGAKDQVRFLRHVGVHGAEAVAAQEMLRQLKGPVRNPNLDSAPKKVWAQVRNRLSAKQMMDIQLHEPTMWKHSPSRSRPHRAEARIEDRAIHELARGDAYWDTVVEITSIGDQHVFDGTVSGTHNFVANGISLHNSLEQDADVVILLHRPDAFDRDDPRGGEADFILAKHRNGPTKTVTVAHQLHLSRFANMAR

[7] = biological target: T3, Rac GTPase-activating protein 1 (Homo sapiens, UniProt Q9H0H5); assay: MgcRacGAP GTPase-activating activity inhibitors, confirmation, biochemical, ADP Hunter fluorescence, primary and confirmatory (AID 624330); format: functional
T3 sequence (Q9H0H5 whole entry): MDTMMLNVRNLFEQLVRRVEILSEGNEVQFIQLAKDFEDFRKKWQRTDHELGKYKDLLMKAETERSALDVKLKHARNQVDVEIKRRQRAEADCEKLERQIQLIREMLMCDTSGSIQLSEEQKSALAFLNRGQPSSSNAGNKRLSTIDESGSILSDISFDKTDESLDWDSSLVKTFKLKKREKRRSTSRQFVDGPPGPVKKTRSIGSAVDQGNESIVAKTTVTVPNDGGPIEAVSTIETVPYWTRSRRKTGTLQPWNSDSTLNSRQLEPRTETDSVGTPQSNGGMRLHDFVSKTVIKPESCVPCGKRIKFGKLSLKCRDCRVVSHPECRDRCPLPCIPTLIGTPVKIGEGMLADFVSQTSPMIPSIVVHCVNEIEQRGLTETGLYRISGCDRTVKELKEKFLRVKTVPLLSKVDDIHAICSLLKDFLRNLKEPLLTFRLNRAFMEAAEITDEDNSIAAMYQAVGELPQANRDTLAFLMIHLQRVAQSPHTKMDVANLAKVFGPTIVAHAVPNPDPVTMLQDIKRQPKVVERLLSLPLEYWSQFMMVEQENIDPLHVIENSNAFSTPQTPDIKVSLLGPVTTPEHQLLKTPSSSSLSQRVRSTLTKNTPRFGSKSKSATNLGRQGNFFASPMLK

[8] = Shn3 3'UTR reporter inhibitors, dose response, cell-based, Clone20 osteoblasts, firefly luciferase, cherry-picked (AID 624132); format: functional;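 note: firefly luciferase luminescence from reporter carrying the Shn3 3'UTR in osteoblasts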
[9] = HepG2 cell cytotoxicity, dose response, cytotoxicity control for Shn3 inhibitor project, CellTiter-Glo, cherry-picked (AID 624134); format: functional, cell-based
[10] = inhibitors of PGC1a acetylation in cells, dose response, cell-based, cherry-picked samples (AID 720514); format: functional;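 note: potency may reflect raised or lowered acetylation signal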
[11] = biological target: T4, Probable nicotinate-nucleotide adenylyltransferase (Staphylococcus aureus (strain N315), UniProt P65502); format: functional, Staphylococcus aureus subsp. aureus N315;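 for IC50 Mean: confirmatory dose-response retesting of NadD inhibitor hits first found in an ultra-high-throughput screen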
T4 sequence (P65502 whole entry, the tested form may be a part): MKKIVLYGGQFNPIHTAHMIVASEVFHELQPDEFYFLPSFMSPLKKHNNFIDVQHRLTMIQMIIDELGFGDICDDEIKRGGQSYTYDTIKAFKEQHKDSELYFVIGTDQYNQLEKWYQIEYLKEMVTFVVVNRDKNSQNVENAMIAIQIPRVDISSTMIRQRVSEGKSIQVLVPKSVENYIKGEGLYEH

[12] = biological target: T5, Carboxy-terminal domain RNA polymerase II polypeptide A small phosphatase 1 (Homo sapiens, UniProt Q9GZU7); assay: inhibitors of CTDSP1, concentration-response testing, biochemical assay, absorbance-based, actives from ultra-high-throughput screening (AID 540297); format: functional
T5 sequence (Q9GZU7 whole entry): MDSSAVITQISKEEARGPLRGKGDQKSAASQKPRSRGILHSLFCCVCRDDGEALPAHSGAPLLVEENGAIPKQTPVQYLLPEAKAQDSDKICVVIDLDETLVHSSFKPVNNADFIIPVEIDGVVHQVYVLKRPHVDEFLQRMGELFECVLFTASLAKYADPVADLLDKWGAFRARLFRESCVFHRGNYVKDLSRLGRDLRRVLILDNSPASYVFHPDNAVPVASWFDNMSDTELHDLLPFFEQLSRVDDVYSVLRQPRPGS

[13] = biological target: T4, Probable nicotinate-nucleotide adenylyltransferase; format: functional, Staphylococcus aureus subsp. aureus N315; settings: read-out: IC50_Mean
INS1 = assay: beta cell apoptosis inhibitors, cytokine rescue, dose response, luminescence, retest (AID 449756); format: functional, cell-based; settings: Rattus norvegicus;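 note: cell death triggered by IL-1 beta plus TNF-alpha plus IFN-gamma mixture; protective hits raise ATP signal compared with cytokine alone wells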
Protein Wnt-3a = Protein Wnt-3a (Mus musculus, UniProt P27467); assay: Wnt3a-driven reporter signaling inhibition, dose response, selectivity assay for Gli-SUFU antagonist project, Wnt-LIGHT cells, luminescence (AID 651570); format: functional; settings: read-out: IC50_Mean;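 note: Wnt-LIGHT reporter cells stimulated with conditioned medium from Wnt3a-producing cells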
Chain of Protein Wnt-3a (P27467 whole entry): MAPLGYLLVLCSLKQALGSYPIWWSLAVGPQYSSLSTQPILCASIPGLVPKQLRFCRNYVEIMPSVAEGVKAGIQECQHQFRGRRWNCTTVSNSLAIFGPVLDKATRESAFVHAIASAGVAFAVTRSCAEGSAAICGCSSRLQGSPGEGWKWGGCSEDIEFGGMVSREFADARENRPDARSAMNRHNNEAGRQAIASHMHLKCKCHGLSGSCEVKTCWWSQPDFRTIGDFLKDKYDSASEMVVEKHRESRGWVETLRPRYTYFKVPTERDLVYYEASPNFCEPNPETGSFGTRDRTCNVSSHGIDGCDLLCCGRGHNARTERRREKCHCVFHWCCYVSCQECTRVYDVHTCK

[14] = biological target: T6, High affinity choline transporter 1 (Homo sapiens, UniProt Q9GZV3); assay: CHT inhibitors, dose response, cell-based, 10-point CRC, membrane potential dye (AID 588401); format: functional;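 note: membrane potential dye fluorescence of choline-evoked depolarization via CHT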
T6 sequence (Q9GZV3 whole entry): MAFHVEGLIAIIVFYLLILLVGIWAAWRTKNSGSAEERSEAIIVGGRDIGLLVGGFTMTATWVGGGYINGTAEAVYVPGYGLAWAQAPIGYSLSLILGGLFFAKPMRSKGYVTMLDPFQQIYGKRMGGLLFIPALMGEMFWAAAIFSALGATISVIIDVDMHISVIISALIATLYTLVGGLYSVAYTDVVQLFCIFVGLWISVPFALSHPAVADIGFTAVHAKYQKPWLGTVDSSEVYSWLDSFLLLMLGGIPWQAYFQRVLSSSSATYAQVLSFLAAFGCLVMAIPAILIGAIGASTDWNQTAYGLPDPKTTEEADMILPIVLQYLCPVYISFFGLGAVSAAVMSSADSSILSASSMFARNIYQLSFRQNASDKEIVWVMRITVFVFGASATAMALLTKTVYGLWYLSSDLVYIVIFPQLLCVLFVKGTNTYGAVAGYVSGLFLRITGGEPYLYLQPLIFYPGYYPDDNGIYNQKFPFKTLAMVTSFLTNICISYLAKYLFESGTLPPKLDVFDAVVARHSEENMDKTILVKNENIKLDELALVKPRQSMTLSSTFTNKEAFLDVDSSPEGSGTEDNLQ

[15] = biological target: T6, High affinity choline transporter 1; assay: CHT inhibitors, dose response, cell-based, 5-point CRC, membrane potential dye (AID 504840); format: functional
HeLa = assay: HeLa cell cytotoxicity, dose response, cytotoxicity control for MITF activator project, CellTiter-Glo luminescence, cherry-pick samples (AID 540259); format: functional, cell-based; settings: Homo sapiens
H4 = assay: Luminescence Cell-Based Dose Response HTS to Identify Activators of 5'UTR Stem-Loop Driven Prion Protein mRNA Translation in H4 Neuroglioblastoma Cells. [Related pubchem assays: 1829 (Project Summary), 1814 (Primary HTS)]; format: functional; settings: Homo sapiens
[16] = HEp-2 cell cytotoxicity, dose response, cytotoxicity control for RSV inhibitor project, HTS (AID 2410); format: functional; settings: human respiratory syncytial virus
[17] = Luminescence Cell-Based Dose Confirmation HTS to Identify Activators of 5'UTR Stem-Loop Driven Alpha-Synuclein mRNA Translation in H4 Neuroglioblastoma Cells. [Related pubchem assays: 1829 (Project Summary), 1814 (Primary HTS)]; format: functional
[18] = Luminescence Cell-Based Dose Response HTS to Identify Activators of Luciferase Translation or Activity in H4 […] Cells. [Related pubchem assays: 1829 (Project Summary), 1814 (Primary HTS)]; format: functional
[19] = biological target: T7, Small ubiquitin-related modifier 1 (Homo sapiens, UniProt P63165); assay: inhibitors of SUMO1 peptide binding, dose response, biochemical, fluorescence polarization, uHTS hits (AID 624382); format: functional; settings: read-out: IC50_Mean
T7 sequence (P63165 whole entry): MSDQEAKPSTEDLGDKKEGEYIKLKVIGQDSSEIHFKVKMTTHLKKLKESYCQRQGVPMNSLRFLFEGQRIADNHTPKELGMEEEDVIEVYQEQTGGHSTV

[20] = biological target: T7, Small ubiquitin-related modifier 1; assay: inhibitors of SUMO1 partner interactions, dose response, biochemical, FRET (AID 624383); format: functional; settings: read-out: IC50_Mean

With `O=C(Nc1ccccc1)C1=C(c2ccccc2)S(=O)(=O)CCS1(=O)=O` the EC50 [1] was 1.31 µM (active), the CC50 [2] was 71.9 µM (active) and the IC50 (Genome polyprotein) was > 100 µM (active). The AC50 [3] was 10.3 µM (active), the EC50 [4] was 2.06 µM (active) and the EC50 (Protein RecA) was 0.682 µM (active). The IC50 [5] was 3.59 µM (active), the AC50 [6] was 1.42 µM (active) and the IC50 [7] was 123 µM (active). The AC50 [8] was 1.37 µM (active), the AC50 [9] was 15.4 µM (active) and the AC50 [10] was 8.27 µM (active).
For `C[C@@H]1CN([C@H](C)CO)C(=O)c2cc(NC(=O)c3ccncc3)ccc2O[C@@H]1CN(C)C(=O)Nc1ccccc1`, the IC50 [11] was 26.9 µM (active), the IC50 [12] was 12.8 µM (active) and the IC50 [13] was 35.2 µM (active).
For `CCCCSc1nc2sc3c(c2c(=O)n1-c1ccc(C)cc1)CCN(C)C3`, the AC50 (INS1) was 10.1 µM (active) and the IC50 (Protein Wnt-3a) was 10.8 µM (active).
In the case of `COc1cccc(CCNC(=O)c2ccc(OC)c(OC3CCN(C(C)C)CC3)c2)c1`, the IC50 [14] is reported as 3.98 µM (active) and the IC50 [15] is reported as 5 µM (active).
With `COc1ccccc1N1CCN(C2=Nc3cccc4cccc2c34)CC1` the AC50 (HeLa) was 27.1 µM (active), the EC50 (H4) was 18.5 µM (active) and the CC50 [16] was 25.4 µM (active). The EC50 [17] was 43.3 µM (active) and the EC50 [18] was 19.1 µM (active).
In the case of `O=C(Nc1ccc(N2CCCC2)cc1)c1cc(Br)ccc1Cl`, the IC50 [11] is reported as 21.7 µM (active) and the IC50 [13] is reported as 35.9 µM (active).
For `Cn1c(-c2ccc(Cl)cc2)cnc1NCc1cc2c(cc1[N+](=O)[O-])OCO2`, the CC50 [2] was 100 µM (active) and the IC50 [7] was 73.5 µM (active).
For `COc1ccc(C(=O)Nc2nc3cc4c(cc3s2)OCCO4)c(OC)c1`, the IC50 [19] was > 66.6 µM (inactive) and the IC50 [20] was 2.77 µM (active).
For `O=C(COC(=O)CCC(=O)c1ccc(F)cc1)Nc1ccc2[nH]c(O)nc2c1`, the IC50 [19] was > 66.6 µM (inactive) and the IC50 [20] was 17.6 µM (active).
In the case of `Cc1ccc(S(=O)(=O)Nc2ccc(Nc3nccn4c(-c5cccc(OC(F)(F)F)c5)cnc34)cc2)cc1`, the IC50 [11] is reported as 16.2 µM (active) and the IC50 [13] is reported as 27.2 µM (active).
